# Where no end group is shown, it is not given here.
# What was measured:
# [1] = system: blood pressure of anesthetized Sprague-Dawley IGS male rats; experiment: Hypotensive activity in anesthetized rats, invasive blood pressure measurement after intravenous administration; format: in vivo, rat; details: anesthetized rats, intravenous; for Hypotensive activity (dose/rat) 30 nmol: 30 nmol/rat; for Hypotensive activity (dose/rat) 100 nmol: 100 nmol/rat
# [2] = system: anti-[N-Cys]-HC021-004 serum; experiment: ELISA binding of anti-[N-Cys]-HC021-004 serum to coated peptides; set-up: species or system rabbit; details: absorbance at 405 nm, FIG. 3
# Excerpt: Using [N-Cys]-HC021-004 (a peptide prepared by binding cysteine to the amino terminus of HC021-004) as an antigen, a rabbit was immunized with the antigen to produce antiserum (anti-[N-Cys]-HC021-004 serum).
# The ability of this antiserum to bind to peptides having various types of sequences was examined using Protein Detector™ ELISA kit (AP; BluePhos System; manufactured by KPL). Reactions were all carried out at a room temperature. A 96-well immunoplate (maxi-coated; manufactured by Nunc) was coated (amount: 100 uL/well) with each peptide having a different type of sequence (concentration: 1 ng/100 uL) for 1 hour. Then, it was blocked with a 300 uL/well blocking solution for 1 hour. Thereafter, the serially diluted antiserum was added in an amount of 100 uL/well to the immunoplate, followed by reaction for 1 hour. After completion of washing, 500-times diluted Anti-rabbit IgG HRP Ab (manufactured by KPL) was added thereto in an amount of 100 uL/well, followed by reaction for 1 hour. After completion of washing, ABTS (manufactured by KPL) used as a substrate was added thereto in an amount of 100 uL/well. Thirty minutes later, the absorbance at 405 nm was measured.
Substance,Hypotensive activity (dose/rat) 30 nmol ([1]; Table 1),Hypotensive activity (dose/rat) 100 nmol ([1]; Table 1),Hypotensive activity (dose/rat) 30 nmol ([1]; Table 2),Hypotensive activity (dose/rat) 100 nmol ([1]; Table 2),binding of anti-[N-Cys]-HC021-004 serum to the peptide [2],"Hypotensive activity (dose/rat) 10 nmol ([1]; Table 1, 10 nmol/rat)"
LQAYFK-amide (LQAYFK-NH2) [Compound 4],−,−,−,−,bound,
LQAYFKGRGLDLGTFPNPFPTNENP [Compound 2],−,−,,,did not bind,−

# Reference: patent US20110039783A1, “PEPTIDE HAVING HYPOTENSIVE ACTIVITY” (DAIICHI SANKYO COMPANY LIMITED, priority 2007, published 2011)
